Reference: patent US6677460B1, “Aromatic carboxylic acid bicyclic sulfur compounds” (Idemitsu Kosan Company, Limited, priority 1993, dated 2004)

How the values were obtained:
barnyard grass [1] = assay: Submergence soil treatment test (4); assay type: in vivo; settings: twenty days after treatment; further: ranges in brackets are in %
Procedure: (§1) 90 Parts by weight of the above carrier and 10 parts by weight of each of Compounds obtained in the above Preparation Examples were uniformly pulverized and mixed to obtain herbicides. Further, for Herbicide Comparative Examples, comparative herbicides were prepared by uniformly pulverizing and mixing 90 parts by weight of the above carrier and 10 parts by weight of each of the following Compounds x, y, A, B and C.
(§2) (4) Biological Test (Submergence Soil Treatment Test, Herbicide Examples 5˜9 and Comparative Examples 5˜8 and Reference Example 1 and 2)
(§3) 1/15,500-are porcelain pots were filled with paddy field soil, and seeds of barnyard grass and umbrella plant were sown in a surface layer of the soil, and paddy rice at the 2-leaf stage was transplanted. Then, the weeds were treated by uniformly spraying a diluted solution of a predetermined amount of the herbicide prepared in the above (1) onto the water surface at the time of germination of the weeds, and then the pots were allowed to stand in a greenhouse while water was properly sprayed. […] The dosage of each herbicide is shown as an amount of the active ingredient per 10 areas. Further, air-dried weights were measured, and the herbicidal efficacy and the phytotoxicity to the paddy rice were shown as follows.

umbrella plant = assay: Submergence soil treatment test (4); assay type: in vivo; settings: twenty days after treatment; further: ranges in brackets are in %
Procedure: as §1, §2, §3

paddy rice = assay: Submergence soil treatment test (4), phytotoxicity; assay type: in vivo; settings: twenty days after treatment
Procedure: as §1, §2, §3

barnyard grass [2] = assay: Upland soil treatment test (5); assay type: in vivo; settings: dosage 100 g a.i./hectare, 20th day after treatment; further: ranges in brackets are in %
Procedure: as §1
(§4) (5) Biological Test (Upland Soil Treatment Test, Herbicide Examples 10-26 and Comparative Example 9)
(§5) Seeds of weeds such as large crabgrass, barnyard grass, green foxtail, cocklebur, velvetleaf and slender amaranth and seeds of corn, wheat and barley were sown in 1/5,000-are Wagner pots filled with upland soil, and covered with upland soil. Then, a predetermined amount of the herbicide prepared in the above (1) was suspended in water and uniformly sprayed onto the soil surface. Thereafter, the plants were grown in the greenhouse, and on 20th day after the treatment, the herbicide was evaluated for herbicidal efficacy.
(§6) The dosage of each herbicide is indicated as an amount of the active ingredient per hectare. Further, air-dried weight were measured, and herbicidal efficacy and the pytotoxicity to corn are shown on the basis of the ratings described below.

cocklebur [3] = assay: Upland soil treatment test (5); assay type: in vivo; settings: dosage 100 g a.i./hectare, 20th day after treatment; further: ranges in brackets are in %
Procedure: as §1, §4, §5, §6

green foxtail [4] = assay: Upland soil treatment test (5); assay type: in vivo; settings: dosage 100 g a.i./hectare, 20th day after treatment; further: ranges in brackets are in %
Procedure: as §1, §4, §5, §6

large crabgrass [5] = assay: Upland soil treatment test (5); assay type: in vivo; settings: dosage 100 g a.i./hectare, 20th day after treatment; further: ranges in brackets are in %
Procedure: as §1, §4, §5, §6

slender amaranth [6] = assay: Upland soil treatment test (5); assay type: in vivo; settings: dosage 100 g a.i./hectare, 20th day after treatment; further: ranges in brackets are in %
Procedure: as §1, §4, §5, §6

velvetleaf [7] = assay: Upland soil treatment test (5); assay type: in vivo; settings: dosage 100 g a.i./hectare, 20th day after treatment; further: ranges in brackets are in %
Procedure: as §1, §4, §5, §6

corn [8] = assay: Upland soil treatment test (5), phytotoxicity; assay type: in vivo; settings: dosage 100 g a.i./hectare, 20th day after treatment
Procedure: as §1, §4, §5, §6

barnyard grass [9] = assay: Upland soil treatment test (6); assay type: in vivo; settings: 100 g/hectare, 20th day after treatment; further: ranges in brackets are in %
Procedure: as §1
(§7) (6) Biological Test (Upland Soil Treatment Test, Herbicide Examples 27˜42 and Comparative Example 10).
as §5, with “foxtail, cocklebur ,” for “foxtail, cocklebur,”, “evaluated f or” for “evaluated for”
(§8) The dosage of each herbicide is indicated as an amount of the active ingredient per hectare. Further, air-dried weight were measured and the herbicidal efficacy and the phytotoxicity to corn are shown on the basis of the ratings described below.

cocklebur [10] = assay: Upland soil treatment test (6); assay type: in vivo; settings: 100 g/hectare, 20th day after treatment; further: ranges in brackets are in %
Procedure: as §1, §7
as §5, with “foxtail, cocklebur ,” for “foxtail, cocklebur,”, “evaluated f or” for “evaluated for”
as §8

green foxtail [11] = assay: Upland soil treatment test (6); assay type: in vivo; settings: 100 g/hectare, 20th day after treatment; further: ranges in brackets are in %
Procedure: as §1, §7
as §5, with “foxtail, cocklebur ,” for “foxtail, cocklebur,”, “evaluated f or” for “evaluated for”
as §8

large crabgrass [12] = assay: Upland soil treatment test (6); assay type: in vivo; settings: 100 g/hectare, 20th day after treatment; further: ranges in brackets are in %
Procedure: as §1, §7
as §5, with “foxtail, cocklebur ,” for “foxtail, cocklebur,”, “evaluated f or” for “evaluated for”
as §8

slender amaranth [13] = assay: Upland soil treatment test (6); assay type: in vivo; settings: 100 g/hectare, 20th day after treatment; further: ranges in brackets are in %
Procedure: as §1, §7
as §5, with “foxtail, cocklebur ,” for “foxtail, cocklebur,”, “evaluated f or” for “evaluated for”
as §8

velvetleaf [14] = assay: Upland soil treatment test (6); assay type: in vivo; settings: 100 g/hectare, 20th day after treatment; further: ranges in brackets are in %
Procedure: as §1, §7
as §5, with “foxtail, cocklebur ,” for “foxtail, cocklebur,”, “evaluated f or” for “evaluated for”
as §8

corn [15] = assay: Upland soil treatment test (6), phytotoxicity; assay type: in vivo; settings: 100 g/hectare, 20th day after treatment; further: ranges in brackets are in %
Procedure: as §1, §7
as §5, with “foxtail, cocklebur ,” for “foxtail, cocklebur,”, “evaluated f or” for “evaluated for”
as §8

| SMILES | Herbicidal efficacy (B): barnyard grass (barnyard grass [9]) | Herbicidal efficacy (D): cocklebur (cocklebur [10]) | Herbicidal efficacy (C): green foxtail (green foxtail [11]) | Herbicidal efficacy (A): large crabgrass (large crabgrass [12]) | Herbicidal efficacy (F): slender amaranth (slender amaranth [13]) | Herbicidal efficacy (E): velvetleaf (velvetleaf [14]) | Phytotoxicity to corn (corn [15]) | other results |
| --- | --- | --- | --- | --- | --- | --- | --- | --- |
| CCn1ncc(C(=O)c2ccc(S(C)(=O)=O)c(C(=O)OC)c2Cl)c1O [Comp'd A, reference compound] | 2 (41-60) | 1 (61-80) | 4 (1-20) | 1 (61-80) | 3 (21-40) | 5 (0) | 0 (100) | Herbicidal Effficacy barnyard grass (barnyard grass [1]; dosage 1 g a.i./10 are): 1 (61-80); Herbicidal Effficacy barnyard grass (barnyard grass [1]; dosage 3 g a.i./10 are): 4 (1-20); Herbicidal Effficacy umbrella plant (umbrella plant; dosage 1 g a.i./10 are): 0 (81-100); Herbicidal Effficacy umbrella plant (umbrella plant; dosage 3 g a.i./10 are): 4 (1-20); Phytotoxicity to paddy rice (paddy rice; dosage 1 g a.i./10 are): 0 (100); Phytotoxicity to paddy rice (paddy rice; dosage 3 g a.i./10 are): 4 (0-79); Herbicidal Efficacy barnyard grass (barnyard grass [2]): 2 (41-60); Herbicidal Efficacy cocklebur (cocklebur [3]): 1 (61-80); Herbicidal Efficacy green foxtail (green foxtail [4]): 4 (1-20); Herbicidal Efficacy large crabgrass (large crabgrass [5]): 1 (61-80); Herbicidal Efficacy slender amaranth (slender amaranth [6]): 3 (21-40); Herbicidal Efficacy velvetleaf (velvetleaf [7]): 5 (0); Phyto-toxicity to corn (corn [8]): 0 (100) |
| CCC(=O)Oc1c(C(=O)c2cc(C)c3c(c2C)C(C)(C)CCS3)cnn1CC [Compound 19] |  |  |  |  |  |  |  | Herbicidal Efficacy barnyard grass (barnyard grass [2]): 5 (0); Herbicidal Efficacy cocklebur (cocklebur [3]): 5 (0); Herbicidal Efficacy green foxtail (green foxtail [4]): 2 (41-60); Herbicidal Efficacy large crabgrass (large crabgrass [5]): 5 (0); Herbicidal Efficacy slender amaranth (slender amaranth [6]): 5 (0); Herbicidal Efficacy velvetleaf (velvetleaf [7]): 5 (0); Phyto-toxicity to corn (corn [8]): 0 (100); melting point: 178 to 179.6 °C |
| CCCS(=O)(=O)Oc1c(C(=O)c2cc(C)c3c(c2C)C(C)(C)CCS3(=O)=O)c(C)nn1C [Compound 30, 4,4,5,8-tetramethyl-6-(1,3-dimethyl-5-n-propanesulfonyloxypyrazol-4-yl)carbonylthiochroman-1,1-dioxide] | 4 (1-20) | 1 (61-80) | 3 (21-40) | 5 (0) | 5 (0) | 5 (0) | 0 (100) |  |
| Cc1ccc(S(=O)(=O)Oc2c(C(=O)c3cc(C)c4c(c3C)C(C)(C)CCS4)c(C)nn2C)cc1 [Compound 31] | 4 (1-20) | 1 (61-80) | 3 (21-40) | 5 (0) | 5 (0) | 4 (1-20) | 0 (100) |  |
| CCn1ncc(C(=O)c2cc(C)c3c(c2C)C(C)CCS3(=O)=O)c1O (stereo not shown) [Compound 44, 4,5,8-trimethyl-6-(1-ethyl-5-hydroxypyrazol-4-yl)carbonylthiochroman-1,1-dioxide] | 5 (0) | 5 (0) | 5 (0) | 5 (0) | 5 (0) | 5 (0) | 0 (100) |  |
| CCn1ncc(C(=O)c2ccc3c(c2C)CCCS3(=O)=O)c1O [Compound 48, 5-Methyl-6-(1-ethyl-5-hydroxypyrazol-4-yl)carbonylthiochroman-1,1-dioxide] | 5 (0) | 1 (61-80) | 1 (61-80) | 5 (0) | 5 (0) | 5 (0) | 0 (100) |  |
| CCCS(=O)(=O)Oc1c(C(=O)c2cc(C)c3c(c2C)C(C)CCS3(=O)=O)cnn1CC (stereo not shown) [Compound 51, 4,5,8-trimethyl-6-(1-ethyl-5-n-propanesulfonyloxypyrazol-4-yl)carbonylthiochroman-1,1-dioxide] | 5 (0) | 5 (0) | 5 (0) | 5 (0) | 5 (0) | 5 (0) | 0 (100) |  |
| CCn1ncc(C(=O)c2cc(C)c3c(c2C)C(C)CCS3(=O)=O)c1OS(=O)(=O)c1ccc(C)cc1 (stereo not shown) [Compound 52, 4,5,8-trimethyl-6-(1-ethyl-5-p-toluenesulfonyloxypyrazol-4-yl)carbonylthiochroman-1,1-dioxide] | 5 (0) | 5 (0) | 5 (0) | 5 (0) | 5 (0) | 5 (0) | 0 (100) |  |
